What was measured:
[1] = molecular target: GLP (G9a-like protein, EHMT1) (Homo sapiens, UniProt Q9H9B1); settings: compared with G9a
[2] = Henderson–Hasselbalch equation, assay conditions pH 8
[3] = tested on: all other methyltransferases in the panel; settings: panel other than G9a, GLP, SETD2, EZH2
[4] = molecular target: SETD2 (Homo sapiens, UniProt Q9BYW2); settings: at the highest concentrations surveyed (50 μM)
[5] = molecular target: G9a (Homo sapiens, UniProt Q96KQ7); settings: SPA assay
Chain of G9a (Q96KQ7 whole entry): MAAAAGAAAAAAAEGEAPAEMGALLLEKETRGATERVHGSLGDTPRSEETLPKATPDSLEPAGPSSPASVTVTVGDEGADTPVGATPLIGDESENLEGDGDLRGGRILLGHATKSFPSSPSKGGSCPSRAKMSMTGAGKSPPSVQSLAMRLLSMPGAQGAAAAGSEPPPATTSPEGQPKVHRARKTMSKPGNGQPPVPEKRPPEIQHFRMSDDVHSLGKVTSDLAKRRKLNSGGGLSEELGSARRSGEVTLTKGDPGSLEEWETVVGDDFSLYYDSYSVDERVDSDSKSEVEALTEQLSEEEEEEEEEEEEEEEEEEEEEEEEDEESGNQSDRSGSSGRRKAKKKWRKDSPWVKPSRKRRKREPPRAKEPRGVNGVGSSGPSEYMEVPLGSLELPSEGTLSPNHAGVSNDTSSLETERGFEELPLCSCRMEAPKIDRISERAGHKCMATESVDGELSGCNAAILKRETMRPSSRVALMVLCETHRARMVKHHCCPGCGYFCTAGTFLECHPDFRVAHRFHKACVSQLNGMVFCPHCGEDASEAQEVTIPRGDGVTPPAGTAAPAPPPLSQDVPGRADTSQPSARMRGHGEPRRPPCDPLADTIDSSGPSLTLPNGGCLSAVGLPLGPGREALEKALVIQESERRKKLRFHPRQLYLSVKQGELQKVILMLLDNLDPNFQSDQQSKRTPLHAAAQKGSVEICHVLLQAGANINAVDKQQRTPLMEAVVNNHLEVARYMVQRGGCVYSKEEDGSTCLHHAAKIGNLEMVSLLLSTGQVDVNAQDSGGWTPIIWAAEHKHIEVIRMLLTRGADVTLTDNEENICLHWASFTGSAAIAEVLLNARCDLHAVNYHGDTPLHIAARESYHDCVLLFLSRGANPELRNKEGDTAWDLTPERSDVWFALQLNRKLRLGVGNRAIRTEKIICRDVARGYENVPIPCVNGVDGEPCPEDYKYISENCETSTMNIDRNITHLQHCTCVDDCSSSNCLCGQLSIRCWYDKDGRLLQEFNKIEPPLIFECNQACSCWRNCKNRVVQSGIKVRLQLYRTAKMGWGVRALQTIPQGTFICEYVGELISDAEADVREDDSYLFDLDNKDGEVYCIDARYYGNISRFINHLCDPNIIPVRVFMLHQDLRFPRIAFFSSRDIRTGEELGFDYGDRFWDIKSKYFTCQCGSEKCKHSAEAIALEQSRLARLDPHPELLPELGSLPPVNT

[6] = molecular target: EZH2 (Homo sapiens, UniProt Q15910); settings: at the highest concentrations surveyed (50 μM)

Chain of GLP (G9a-like protein, EHMT1) (Q9H9B1 whole entry): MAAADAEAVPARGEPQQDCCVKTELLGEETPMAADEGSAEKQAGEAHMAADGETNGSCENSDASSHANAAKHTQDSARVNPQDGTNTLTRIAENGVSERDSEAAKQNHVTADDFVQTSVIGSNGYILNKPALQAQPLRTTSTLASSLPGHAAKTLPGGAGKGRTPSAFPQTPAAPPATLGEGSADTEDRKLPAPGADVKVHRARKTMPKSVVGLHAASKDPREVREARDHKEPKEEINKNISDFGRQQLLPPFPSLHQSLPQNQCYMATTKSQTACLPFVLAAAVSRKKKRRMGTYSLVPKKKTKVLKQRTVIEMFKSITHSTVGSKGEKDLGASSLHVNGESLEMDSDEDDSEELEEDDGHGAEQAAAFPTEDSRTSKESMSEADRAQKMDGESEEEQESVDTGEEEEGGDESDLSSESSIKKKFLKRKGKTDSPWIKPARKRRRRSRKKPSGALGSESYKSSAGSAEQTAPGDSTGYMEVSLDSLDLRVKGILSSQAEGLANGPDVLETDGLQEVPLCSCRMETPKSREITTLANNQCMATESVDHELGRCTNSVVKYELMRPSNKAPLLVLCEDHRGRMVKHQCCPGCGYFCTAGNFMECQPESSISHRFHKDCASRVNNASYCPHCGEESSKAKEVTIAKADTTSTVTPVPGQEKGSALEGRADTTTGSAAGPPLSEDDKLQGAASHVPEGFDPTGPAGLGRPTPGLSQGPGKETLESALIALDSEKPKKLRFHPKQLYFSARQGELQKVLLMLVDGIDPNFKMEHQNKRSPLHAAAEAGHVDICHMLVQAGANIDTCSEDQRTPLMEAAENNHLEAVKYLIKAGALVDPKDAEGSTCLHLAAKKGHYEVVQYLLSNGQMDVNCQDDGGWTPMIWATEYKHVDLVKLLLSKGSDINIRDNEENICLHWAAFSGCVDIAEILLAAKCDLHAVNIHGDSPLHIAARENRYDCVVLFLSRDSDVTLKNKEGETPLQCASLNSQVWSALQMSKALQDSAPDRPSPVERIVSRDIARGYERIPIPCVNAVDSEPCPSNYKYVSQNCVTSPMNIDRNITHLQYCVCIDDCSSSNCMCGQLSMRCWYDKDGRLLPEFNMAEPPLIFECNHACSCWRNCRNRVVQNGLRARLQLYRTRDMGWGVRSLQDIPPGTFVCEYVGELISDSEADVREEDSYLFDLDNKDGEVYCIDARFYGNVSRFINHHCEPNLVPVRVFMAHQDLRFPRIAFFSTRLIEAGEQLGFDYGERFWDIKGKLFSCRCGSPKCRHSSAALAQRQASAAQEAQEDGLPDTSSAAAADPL
Chain of SETD2 (Q9BYW2 whole entry, species assumed): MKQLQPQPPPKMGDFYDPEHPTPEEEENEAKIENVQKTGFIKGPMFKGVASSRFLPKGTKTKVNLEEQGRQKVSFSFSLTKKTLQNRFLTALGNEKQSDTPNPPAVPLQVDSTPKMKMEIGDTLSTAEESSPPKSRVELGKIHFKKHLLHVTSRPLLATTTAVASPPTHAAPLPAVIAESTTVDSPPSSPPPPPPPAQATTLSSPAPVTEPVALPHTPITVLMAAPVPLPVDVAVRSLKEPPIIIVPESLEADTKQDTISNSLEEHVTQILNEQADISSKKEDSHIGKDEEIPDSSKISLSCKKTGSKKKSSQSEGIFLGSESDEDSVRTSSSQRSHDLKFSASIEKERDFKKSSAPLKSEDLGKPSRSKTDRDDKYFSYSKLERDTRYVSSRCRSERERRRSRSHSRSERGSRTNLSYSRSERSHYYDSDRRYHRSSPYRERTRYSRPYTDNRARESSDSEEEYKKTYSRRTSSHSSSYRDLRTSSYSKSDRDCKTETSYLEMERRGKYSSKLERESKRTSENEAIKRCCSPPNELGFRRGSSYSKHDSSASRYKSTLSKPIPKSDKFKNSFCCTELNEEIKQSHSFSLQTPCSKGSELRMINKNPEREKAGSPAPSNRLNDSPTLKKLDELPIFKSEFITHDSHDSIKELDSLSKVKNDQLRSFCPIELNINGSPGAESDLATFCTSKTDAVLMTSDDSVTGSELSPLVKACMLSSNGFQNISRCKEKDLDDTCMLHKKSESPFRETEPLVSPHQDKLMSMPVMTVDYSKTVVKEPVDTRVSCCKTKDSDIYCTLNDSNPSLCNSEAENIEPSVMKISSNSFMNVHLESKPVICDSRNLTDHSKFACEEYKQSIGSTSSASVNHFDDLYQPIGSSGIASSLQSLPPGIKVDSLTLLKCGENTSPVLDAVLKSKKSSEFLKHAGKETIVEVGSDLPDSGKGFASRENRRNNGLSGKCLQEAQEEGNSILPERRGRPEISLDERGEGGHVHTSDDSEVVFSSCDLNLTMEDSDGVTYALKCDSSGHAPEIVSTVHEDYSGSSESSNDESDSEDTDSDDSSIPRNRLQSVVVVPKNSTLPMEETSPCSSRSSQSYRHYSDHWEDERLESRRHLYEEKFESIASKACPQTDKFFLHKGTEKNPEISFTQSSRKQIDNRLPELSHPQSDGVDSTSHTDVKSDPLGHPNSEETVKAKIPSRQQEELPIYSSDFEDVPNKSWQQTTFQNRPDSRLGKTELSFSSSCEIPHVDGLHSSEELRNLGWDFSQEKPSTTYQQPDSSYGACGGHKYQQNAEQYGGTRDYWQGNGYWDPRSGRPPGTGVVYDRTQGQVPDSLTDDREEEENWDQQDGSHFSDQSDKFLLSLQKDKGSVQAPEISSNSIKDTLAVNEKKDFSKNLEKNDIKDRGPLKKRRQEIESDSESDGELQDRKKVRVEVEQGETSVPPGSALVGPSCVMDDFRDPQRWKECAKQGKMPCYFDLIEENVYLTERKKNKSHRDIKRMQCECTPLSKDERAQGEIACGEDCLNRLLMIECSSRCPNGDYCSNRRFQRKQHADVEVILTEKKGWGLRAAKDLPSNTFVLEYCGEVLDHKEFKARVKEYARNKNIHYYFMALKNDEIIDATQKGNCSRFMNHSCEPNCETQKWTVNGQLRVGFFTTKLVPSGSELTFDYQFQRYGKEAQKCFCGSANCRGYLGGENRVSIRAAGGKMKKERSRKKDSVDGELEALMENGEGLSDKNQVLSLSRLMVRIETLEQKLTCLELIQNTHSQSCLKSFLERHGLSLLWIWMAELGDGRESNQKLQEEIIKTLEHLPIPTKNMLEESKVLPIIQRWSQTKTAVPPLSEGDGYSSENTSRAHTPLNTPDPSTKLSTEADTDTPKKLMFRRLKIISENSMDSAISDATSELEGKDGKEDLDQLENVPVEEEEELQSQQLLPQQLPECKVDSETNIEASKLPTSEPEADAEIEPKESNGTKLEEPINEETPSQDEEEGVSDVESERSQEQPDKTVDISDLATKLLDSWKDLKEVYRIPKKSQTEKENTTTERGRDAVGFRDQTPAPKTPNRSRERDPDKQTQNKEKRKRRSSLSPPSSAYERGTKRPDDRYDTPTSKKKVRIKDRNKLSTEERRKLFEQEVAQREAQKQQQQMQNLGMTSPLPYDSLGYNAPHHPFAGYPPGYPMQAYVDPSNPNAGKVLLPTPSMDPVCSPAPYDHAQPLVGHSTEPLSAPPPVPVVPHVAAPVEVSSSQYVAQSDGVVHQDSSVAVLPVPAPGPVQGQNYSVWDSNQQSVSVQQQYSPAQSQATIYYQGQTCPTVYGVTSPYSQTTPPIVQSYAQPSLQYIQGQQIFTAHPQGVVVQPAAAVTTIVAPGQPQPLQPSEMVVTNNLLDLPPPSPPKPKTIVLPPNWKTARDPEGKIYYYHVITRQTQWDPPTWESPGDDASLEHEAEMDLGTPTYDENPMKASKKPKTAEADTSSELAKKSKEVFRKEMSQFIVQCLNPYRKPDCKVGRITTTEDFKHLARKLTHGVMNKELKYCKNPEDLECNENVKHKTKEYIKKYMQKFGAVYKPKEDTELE

activity against GLP (in words) [1]	N-1 protonated form [2]	activity against SETD2 (in words) [4]	G9a inhibitory activity (in words) [5]	activity against EZH2 (in words) [6]	SMILES	activity against all other methyltransferases in the panel (in words) [3]
dual G9a/GLP activity	8.0%	–	–	–	COc1cc2nc(N3CCCN(C)CC3)nc(NC3CCN(Cc4ccccc4)CC3)c2cc1OC [Compound 1, BIX-01294, reference compound]	–
equipotent against G9a and GLP	96.9%	moderate inhibitory activity	significant activity	moderate inhibitory activity	COc1cc2nc(N3CCCN(C)CC3)cc(NC3CCN(Cc4ccccc4)CC3)c2cc1OC [Compound 41]	inactive
equipotent against G9a and GLP	–	moderate inhibitory activity	significant activity	moderate inhibitory activity	COc1cc2nc(N3CCN(C)CC3)cc(NC3CCN(Cc4ccccc4)CC3)c2cc1OC [Compound 42]	inactive
